Data published in patent publication US20040091985A1, “NAD phosphite oxidoreductase, a novel catalyst from bacteria for regeneration of NAD(P)H” (priority 2002, published 2004).
Where “and” joins values, the source holds several entries; their conditions need not be identical. Equal entries are not always repeated. Entries after “also recorded” stand apart in the source; their conditions may differ.

What was measured:
PtxD [1] = molecular target: T1, PtxD (Stutzerimonas stutzeri, UniProt O69054); format: biochemical, Pseudomonas stutzeri WM88; design: made in house
T1 sequence (O69054 1-336): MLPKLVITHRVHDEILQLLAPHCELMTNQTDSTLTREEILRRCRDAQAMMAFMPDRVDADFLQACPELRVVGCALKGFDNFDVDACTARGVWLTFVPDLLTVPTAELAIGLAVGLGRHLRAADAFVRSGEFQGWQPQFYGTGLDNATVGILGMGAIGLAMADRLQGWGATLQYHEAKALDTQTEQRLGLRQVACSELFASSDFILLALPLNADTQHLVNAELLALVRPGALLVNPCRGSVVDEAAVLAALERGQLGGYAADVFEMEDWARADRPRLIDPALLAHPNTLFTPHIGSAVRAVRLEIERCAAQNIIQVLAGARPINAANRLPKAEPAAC

PtxD [2] = molecular target: T1, PtxD; format: biochemical, Pseudomonas stutzeri WM88; design: made in house; remark: listed apart in the source
PtxD [3] = molecular target: T1, PtxD; format: biochemical, Pseudomonas stutzeri WM88; design: made in house; remark: listed apart in the source
PtxD [4] = molecular target: T1, PtxD; format: biochemical, Pseudomonas stutzeri WM88; design: made in house; remark: listed apart in the source
FDH = conditions: read-out: Ki, inhibition of FDH; cited from earlier work
PtxD/LLDH = PtxD/LLDH (Stutzerimonas stutzeri, UniProt O69054); format: biochemical
PtxD [5] = molecular target: PtxD (Stutzerimonas stutzeri, UniProt O69054); format: biochemical
PtxD [6] = molecular target: T1, PtxD; assay: Initial rate studies of PtxD in the presence of products (NADH, phosphate) and dead end inhibitor sulfite; format: biochemical, Pseudomonas stutzeri WM88; design: made in house
PtxD/HLADH = format: biochemical
PtxD [7] = molecular target: T1, PtxD; assay: Initial rate studies of PtxD with NAD and phosphite, kinetic model fitting

Compound: CC(C)CC(O)C(=O)O (racemic) [DL-Hydroxyisocaproate]
- inhibitory activity on PtxD, in words (PtxD [1]): moderately inhibited

Compound: Nc1ncnc2c1ncn2[C@@H]1O[C@H](COP(=O)(O)OP(=O)(O)OC[C@H]2OC(O)[C@H](O)[C@@H]2O)[C@@H](O)[C@H]1O (stereo partly shown) [ADPR, ADP-ribose]
- inhibitory activity on PtxD, in words (PtxD [1]): weak enzyme inhibitors

Compound: Nc1ncnc2c1ncn2[C@@H]1O[C@H](COP(=O)(O)OP(=O)(O)O)[C@@H](O)[C@H]1O [ADP]
- inhibitory activity on PtxD, in words (PtxD [1]): weak enzyme inhibitors

Compound: Nc1ncnc2c1ncn2[C@@H]1O[C@H](COP(=O)(O)O)[C@@H](O)[C@H]1O [AMP]
- inhibitory activity on PtxD, in words (PtxD [1]): does not inhibit

Compound: Nc1ncnc2c1ncn2[C@@H]1O[C@H](COP(=O)(O)OP(=O)(O)OP(=O)(O)O)[C@@H](O)[C@H]1O [ATP]
- inhibitory activity on PtxD, in words (PtxD [1]): weak enzyme inhibitors

Compound: NCCP(=O)(O)O [Aminoethylphosphonate]
- reduction of potential substrate by PtxD with NADH (reverse direction) (PtxD [2]): unable to catalyze the reduction

Compound: O=C(O)[C@H](O)CO [D-Glycerate]
- inhibitory activity on PtxD, in words (PtxD [1]): moderately inhibited

Compound: O=C(O)CN(CCN(CC(=O)O)CC(=O)O)CC(=O)O [EDTA]
- effect on enzyme activity (PtxD [3]): no effect

Compound: O=C(O)CN(CCOCCOCCN(CC(=O)O)CC(=O)O)CC(=O)O [EGTA]
- effect on enzyme activity (PtxD [3]): no effect

Compound: NC(=O)c1ccc[n+]([C@@H]2O[C@H](COP(=O)([O-])OP(=O)(O)OC[C@H]3O[C@@H](n4cnc5c(N)ncnc54)[C@H](OP(=O)(O)O)[C@@H]3O)[C@@H](O)[C@H]2O)c1 [NADP]
- inhibitory activity on PtxD, in words (PtxD [1]): weak enzyme inhibitors
- Activity, cofactors (PtxD [4]): 3.4% and 7.1% and 0.4% and 1.1%
- ability to substitute for NAD (PtxD [4]): able to substitute for NAD; also recorded: can substitute for NAD

Compound: NC(=O)c1ccc[n+]([C@@H]2O[C@H](COP(=O)([O-])OP(=O)(O)OC[C@H]3O[C@@H](n4cnc5c(N)ncnc54)[C@H](O)[C@@H]3O)[C@@H](O)[C@H]2O)c1 [NAD]
- Ki (FDH): 150 µM
- TN (NAD^+) (PtxD/LLDH): 12
- TTN (NAD^+) (PtxD/LLDH): 2000
- total turnover numbers of NAD^+ (PtxD [5]): up to 2000
- Ki (PtxD [6]; Ki, inhibition of PtxD): 223 µM
- TN (NAD^+) (PtxD/HLADH): 123
- TTN (NAD^+) (PtxD/HLADH): 2000
- Activity, cofactors (PtxD [4]): 100.00%

Compound: [Cl-].[Na+] [NaCl]
- activity left (PtxD [3]): 37%

Compound: O=NO [Nitrite]
- inhibitory activity on PtxD, in words (PtxD [1]): moderately inhibited

Compound: O=S(O)O [Sulfite]
- inhibitory activity on PtxD, in words (PtxD [1]): strong inhibitor
- Ki (PtxD [6]; Kii): 4.97 µM and 1.15 µM
- Ki (PtxD [6]; Kis with respect to NAD): 10.8 ± 0.1 µM
- Ki (PtxD [6]; Kis with respect to phosphite): 16.1 ± 0.1 µM

Compound: O=C(O)O [bicarbonate]
- reduction of potential substrate by PtxD with NADH (reverse direction) (PtxD [2]): unable to catalyze the reduction

Compound: O=C(O)C(O)CO (stereo not shown) [glycerate]
- reduction of potential substrate by PtxD with NADH (reverse direction) (PtxD [2]): unable to catalyze the reduction

Compound: O=C(O)C(=O)CO [hydroxypyruvate]
- reduction of substrate by PtxD with NADH (PtxD [2]): 0.14 units/mg

Compound: Arsenite
- inhibitory activity on PtxD, in words (PtxD [1]): moderately inhibited

Compound: NADH
- type of inhibition of PtxD (PtxD [6]): competitive inhibitor

Compound: Phosphite
- Km (PtxD [7]): 53.1 µM and ~50 µM
- Activity, substrates (PtxD [4]): 100.00%

Compound: arsenate
- reduction of potential substrate by PtxD with NADH (reverse direction) (PtxD [2]): unable to catalyze the reduction
